Ends that are not written are not given here.
Test system: blood monocytes from patients with cirrhosis
Test: LC3+ pHrodo+ phagosome (LAPosome) number in blood monocytes from patients with cirrhosis
Assay type: cell-based, human
Conditions: 10 mM 3-MA, 30 μM N8 peptide, data not shown
Description: Human blood monocytes. Human monocytes were isolated from freshly isolated PBMC, using EasySep human monocyte enrichment kit (STEMCELL Technologies, 19058), and CD14+CD16+ monocytes were isolated by immunomagnetic negative selection according to the manufacturer's instructions. Cell treatment. Human monocytes, THP1-XBlueTM-CD14 (Invivogen, Catalog #[…] THP1-FcγRIIA+-CD14+(kindly provided by Novimmune) monocytes were used. When indicated cells were exposed to either 30 μM chloroquine diphosphate (Sigma, C6628), 10 mM 3-Methyladenine (3-MA, Sigma, M9281-100 mg), 10 mM Diphenyleneiodonium chloride (DPI, Sigma, D2926-10 mg), or 10 mg/ml IVIg (Privigen, 100 mg/ml) for 4 hrs at 37° C., as indicated. […] For quantification, images were acquired by confocal microscopy (Confocal Zeiss LSM 780) equipped with a 63× oil immersion objective. For each condition, 10 to 15 fields were randomly selected, and the number of LC3+ signal localized around pHrodo+ phagosomes (LC3+ pHrodo+) was quantified in at least 40 to 60 cells. Unless otherwise indicated, results are expressed as number of LC3+ phagosomes/individual normalized to 100 cells. […]

Compound | LC3+ phagosome number
Cn1cnc(N)c2ncnc1-2 [3-MA, 3-Methyladenine] | significant reduction
N8 peptide: Tat-conjugated peptide of eight N-terminal amino acids (3-10) of p22phox that blocks the Rubicon-p22phox interaction (QIEWAMWA; also: Tat cell-penetrating peptide conjugate, attachment not given here; UniProt P13498 3-10, looked up, fragment) | significant reduction

Reference: patent US20220081481A1, “USE OF AGENTS CAPABLE OF INDUCING LC3-ASSOCIATED PHAGOCYTOSIS FOR TREATING SUSTAINED INFLAMMATION IN PATIENTS SUFFERING FROM CHRONIC LIVER DISEASE” (INSERM (INSTITUT NATIONAL DE LA SANTÉ ET DE LA RECHERCHE …, priority 2019, published 2022)
